{
  "source": "patent US20260297060A1",
  "about": "“COMPOUNDS FOR THE DEGRADATION OF MUTANT BRAF” (C4 THERAPEUTICS, INC., priority 2023, published 2026)",
  "key": {"[1]": {"test": "Pharmacokinetics after 21 days dosing in the efficacy study (plasma, tumor and brain concentrations; plasma AUC at steady state), Example 14", "format": "in vivo, female BALB/c nude mice", "experimental": "Agents were tested in the A375 human melanoma xenografts. Compound 26 and Compound 141 were administered to BALB/c nude mice bearing A375 tumors from PG-DO and dosed via PO twice a day (BID) or third a day (TIP) or dosed P daily (QD) from PG-D. Dabrafenib was administered to BALB/c nude mice bearing A375 tumors from PG-D1 and dosed via P daily (QD). Compound 26 was dosed at 1.5 mg/kg (QD), 2 mg/kg (TID), 3 mg/kg (BID), 6 mg/kg (QD) and 10 mg/kg (BID) for 21 days. Compound 141 was dosed at 0.75 mg/kg (BID), 1 mg/kg (TID), 1.5 mg/kg (BID), 3 mg/kg (QD) and 5 mg/kg (BID) for 21 days. Dabrafenib was dosed at 100 mg/kg for 21 days. This study was non-GLP.\nThe plasma samples were collected at predetermined time points for PK analysis. For non-termination plasma collection: the blood samples were collected into the 1.5 mL Eppendorf tubes containing 3 μL of 0.5 M EDTA-K2. And then the anticoagulant blood samples were centrifuged at 2,500 g at 4° C. for 15 minutes. For termination plasma collection: the mice was euthanized at predetermined time points post the treatment, the blood samples were collected into the 1.5 mL Eppendorf tubes containing 15 μL of 0.5 M EDTA-K2. And then the anticoagulant blood samples were centrifuged at 2,500 g at 4° C. for 15 minutes. The plasma samples were separated into 2 aliquots. The 1st was used for PK analysis, and the 2nd was served as backup.\nThe tumor samples were collected at predetermined time points for PK and WB analysis. The tumor was dissected out and split into 3 parts. The 1st part was used for PK analysis, the 2nd part was used for WB analysis and the last one was used as backup for the study. The samples were transferred into pre-labeled tubes and quickly froze in liquid nitrogen within 2 minutes after dissection. The samples were stored at −80° C. before analysis.\nThe brain samples were collected at predetermined time points for PK and potential WB analysis. The brain was dissected out and split into 3 parts (left brain, right brain upper and right brain lower), the left brain was used for PK, the right brain upper was used for WB and the last one was used as the backup for the study. The samples were transferred into pre-labeled tubes and quickly froze in liquid nitrogen within 2 minutes after dissection. The samples were stored at −80° C. before analysis.\nThe harvested plasma and tumor samples were processed for pharmacokinetics analysis by LC-MS/MS with a concentration range of 1.00-1,000 ng/mL for dabrafenib in plasma and 0.0500-50 ng/mL in tumor and brain homogenate, 5.00-10,000 ng/mL for Compound 141 in plasma and 0.200~200 ng/ml in tumor and brain homogenate. 20.0~20,000 ng/mL for Compound 26 in plasma and 0.5~500 ng/mL for Compound 26 tumor and brain homogenate.\nDabrafenib, Compound 26 and Compound 141 in female BALB/c nude mice plasma (K2-EDTA), tumor and brain homogenate were analyzed by LC-MS/MS (Triple Quad 6500+ Low Mass). Verapamil (5 ng/mL) in acetonitrile: methanol (V: V=95:5) was used as the internal standard for Dabrafenib, Compound 26 and Compound 141 in plasma. Verapamil (0.5 ng/mL) in acetonitrile: methanol (V: V=95:5) was used as the internal standard for Dabrafenib, Compound 26 and Compound 141 in tumor and brain homogenate.\nAn aliquot of 10 μL unknown sample, calibration standard, quality control, dilute quality control, single blank and double blank samples were added to the 96-well plate. Each sample for Dabrafenib, Compound 26 and Compound 141 in plasma (except the double blank) was quenched with 200 μL IS respectively (double blank sample was quenched with 200 μL ACN: MeOH (V: V=95:5)); each sample for Dabrafenib, Compound 26 and Compound 141 in tumor and brain(except the double blank) was quenched with 100 μL IS respectively (double blank sample was quenched with 100 μL ACN: MeOH (V: V=95:5)); and then the mixture was vortex-mixed for 5 min at 800 rpm and centrifuged for 15 min at 3220 g (4000 rpm), 4° C. […]"}, "[2]": {"test": "Example 9 pharmacokinetics assay for efficacy study Part I and II (plasma, liver)", "format": "in vivo, BALB/c nude mice", "conditions": "mouse, po, 100 mg/kg, p.o., QD × 14 days, 6 h following last treatment, ± SEM", "experimental": "For efficacy study Part I, agents were tested in the A375 human melanoma xenografts. Compound 218 and Compound 157 were administered to BALB/c nude mice bearing A375 xenografts from day 0 and dosed twice a day (BID) for 14 days. Compound 218 and Compound 157 were dosed at 10 mg/kg via p.o.. Dabrafenib was administered from day 1 daily (QD) for 14 days and dosed at 100 mg/kg via p.o..\nFor efficacy study Part II, agents were tested in the A375 human melanoma xenografts model. Compound 133, Compound 144 and Compound 198 were administered to BALB/c nude mice bearing A375 xenografts from day 0 and dosed twice a day (BID) for 14 days. Compound 133, Compound 144 and Compound 198 were dosed at 10 mg/kg via p.o..\nThe plasma samples were collected at predetermined time points for PK analysis. The mice were euthanized at predetermined time points post the treatment. The blood samples were collected into the 1.5 mL Eppendorf tubes containing 15 μL of 0.5 M EDTA-K2. And then the anticoagulant blood samples were centrifuged at 2,500 g at 4° C. for 15 minutes. The plasma samples were separated into 2 aliquots. The 1st was used for PK analysis, and the 2nd served as backup. The samples were stored at −80° C. before bioanalysis.\nLiver samples were collected at predetermined time points for PK analysis. The left lobe of the liver was dissected out and split into 2 parts. The 1st part was used for PK analysis and the 2nd part served as the backup for the study. The samples were transferred into pre-labeled tubes and quickly froze in liquid nitrogen within 2 minutes after dissection. The samples were stored at −80° C. before bioanalysis.\nThe harvested plasma and liver samples were processed for pharmacokinetics analysis by LC-MS/MS with a concentration range of 1.00-1,000 ng/mL for Dabrafenib in plasma and liver homogenate, 10.0-10,000 ng/mL for Compound 218, Compound 157, Compound 133, Compound 144 and Compound 198 in plasma and liver homogenate."}},
  "note": "Where two headings read alike, the source gives them in different places.",
  "data": [
    {"smiles": "CC(C)(C)c1nc(-c2cccc(NS(=O)(=O)c3c(F)cccc3F)c2F)c(-c2ccnc(N)n2)s1", "note": "[Dabrafenib, dabrafenib, reference compound]", "values": [
      {"measurement": "Concentration in Brain", "setting": "[1]; 100 mg/kg p.o. QD x 21 days, 24 h, BQL: below the lower limit of quantitation", "result": "BQL^a"},
      {"measurement": "concentration at 4 h", "setting": "[1]; mouse, brain, po, 100 mg/kg p.o. QD x 21 days, mean ± SEM, read-out: Concentration in Brain", "result": "3.59 ± 0.558", "unit": "ng/g"},
      {"measurement": "concentration at 0.25 h", "setting": "[1]; mouse, plasma, po, 100 mg/kg p.o. QD x 21 days, 0.25 h, mean ± SEM", "result": "38700 ± 2110", "unit": "ng/mL"},
      {"measurement": "concentration at 0.5 h", "setting": "[1]; mouse, plasma, po, 100 mg/kg p.o. QD x 21 days, 0.5 h, mean ± SEM", "result": "25700 ± 5690", "unit": "ng/mL"},
      {"measurement": "concentration at 1 h", "setting": "[1]; mouse, plasma, po, 100 mg/kg p.o. QD x 21 days, 1 h, mean ± SEM", "result": "3270 ± 443", "unit": "ng/mL"},
      {"measurement": "concentration at 2 h", "setting": "[1]; mouse, plasma, po, 100 mg/kg p.o. QD x 21 days, 2 h, mean ± SEM", "result": "444 ± 129", "unit": "ng/mL"},
      {"measurement": "concentration at 4 h", "setting": "[1]; mouse, plasma, po, 100 mg/kg p.o. QD x 21 days, mean ± SEM, read-out: Concentration in Plasma", "result": "54.4 ± 7.02", "unit": "ng/mL"},
      {"measurement": "concentration at 8 h", "setting": "[1]; mouse, plasma, po, 100 mg/kg p.o. QD x 21 days, 8 h, mean ± SEM", "result": "55.4 ± 4.19", "unit": "ng/mL"},
      {"measurement": "concentration at 10 h", "setting": "[1]; mouse, plasma, po, 100 mg/kg p.o. QD x 21 days, 10 h, mean ± SEM", "result": "24 ± 6.86", "unit": "ng/mL"},
      {"measurement": "concentration at 24 h", "setting": "[1]; mouse, plasma, po, 100 mg/kg p.o. QD x 21 days, 24 h, read-out: Concentration in Plasma", "result": 2.27, "unit": "ng/mL"},
      {"measurement": "AUC", "setting": "[1]; mouse, plasma, po, 100 mg/kg p.o. QD × 21 days, read-out: Plasma AUC at steady state (Day 21), Average", "result": 18100, "unit": "ng·h/mL"},
      {"measurement": "concentration at 4 h", "setting": "[1]; mouse, tumor, po, 100 mg/kg p.o. QD x 21 days, mean ± SEM, read-out: Concentration in Tumor", "result": "137 ± 7.51", "unit": "ng/g"},
      {"measurement": "concentration at 24 h", "setting": "[1]; mouse, tumor, po, 100 mg/kg p.o. QD x 21 days, 24 h, mean ± SEM, read-out: Concentration in Tumor", "result": "1.43 ± 0.191", "unit": "ng/g"},
      {"measurement": "concentration at 6 h", "setting": "[2]; liver, read-out: Mean Concentration in Liver", "result": "1240 ± 162", "unit": "ng/g"},
      {"measurement": "concentration at 6 h", "setting": "[2]; plasma, read-out: Mean Concentration in Plasma", "result": "410 ± 58.2", "unit": "ng/mL"}
    ]}
  ]
}
